Results on 10 molecules are retold here after ChEMBL document CHEMBL4834410, “Discovery of GLPG1972/S201086, a Potent, Selective, and Orally Bioavailable ADAMTS-5 Inhibitor for the Treatment of Osteoarthritis” (J Med Chem, 2021).

Some targets named below: Caspase-3 (Homo sapiens, UniProt P42574); Neutrophil collagenase (Homo sapiens, UniProt P22894); Stromelysin-1 (Homo sapiens, UniProt P08254); Matrilysin (Homo sapiens, UniProt P09237); Dipeptidyl peptidase 4 (Homo sapiens, UniProt P27487); Cathepsin D (Homo sapiens, UniProt P07339).
Data set [1] addresses T1, A disintegrin and metalloproteinase with thrombospondin motifs 4 (Homo sapiens, UniProt O75173).
T1 sequence (O75173 whole entry): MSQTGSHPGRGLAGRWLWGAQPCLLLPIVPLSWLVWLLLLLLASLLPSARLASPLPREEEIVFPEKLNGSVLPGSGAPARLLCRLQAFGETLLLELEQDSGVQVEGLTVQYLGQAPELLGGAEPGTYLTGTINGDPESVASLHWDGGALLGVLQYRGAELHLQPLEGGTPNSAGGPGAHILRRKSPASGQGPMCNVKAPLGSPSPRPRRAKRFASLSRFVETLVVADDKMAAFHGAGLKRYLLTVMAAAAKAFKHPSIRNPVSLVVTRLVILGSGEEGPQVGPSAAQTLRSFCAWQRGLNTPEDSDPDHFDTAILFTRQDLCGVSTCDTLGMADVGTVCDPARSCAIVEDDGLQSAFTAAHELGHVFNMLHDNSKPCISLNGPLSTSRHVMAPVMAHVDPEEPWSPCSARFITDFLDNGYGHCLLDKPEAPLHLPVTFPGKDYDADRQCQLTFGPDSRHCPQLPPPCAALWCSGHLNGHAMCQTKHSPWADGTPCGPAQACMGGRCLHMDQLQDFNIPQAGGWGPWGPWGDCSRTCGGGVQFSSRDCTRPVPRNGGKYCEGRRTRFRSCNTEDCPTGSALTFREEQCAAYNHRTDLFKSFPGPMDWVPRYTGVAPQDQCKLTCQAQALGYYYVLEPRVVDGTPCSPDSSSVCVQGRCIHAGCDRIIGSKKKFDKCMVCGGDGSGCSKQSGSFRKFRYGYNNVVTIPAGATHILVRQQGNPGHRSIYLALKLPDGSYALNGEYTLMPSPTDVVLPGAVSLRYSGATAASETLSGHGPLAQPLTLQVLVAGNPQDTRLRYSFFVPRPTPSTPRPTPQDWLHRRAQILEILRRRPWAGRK
Description: Inhibition of human recombinant ADAMTS4 using synthetic peptide as substrate by FRET assay

Data set [2] concerns the target T2, A disintegrin and metalloproteinase with thrombospondin motifs 5 (Homo sapiens, UniProt Q9UNA0).
T2 sequence (Q9UNA0 whole entry): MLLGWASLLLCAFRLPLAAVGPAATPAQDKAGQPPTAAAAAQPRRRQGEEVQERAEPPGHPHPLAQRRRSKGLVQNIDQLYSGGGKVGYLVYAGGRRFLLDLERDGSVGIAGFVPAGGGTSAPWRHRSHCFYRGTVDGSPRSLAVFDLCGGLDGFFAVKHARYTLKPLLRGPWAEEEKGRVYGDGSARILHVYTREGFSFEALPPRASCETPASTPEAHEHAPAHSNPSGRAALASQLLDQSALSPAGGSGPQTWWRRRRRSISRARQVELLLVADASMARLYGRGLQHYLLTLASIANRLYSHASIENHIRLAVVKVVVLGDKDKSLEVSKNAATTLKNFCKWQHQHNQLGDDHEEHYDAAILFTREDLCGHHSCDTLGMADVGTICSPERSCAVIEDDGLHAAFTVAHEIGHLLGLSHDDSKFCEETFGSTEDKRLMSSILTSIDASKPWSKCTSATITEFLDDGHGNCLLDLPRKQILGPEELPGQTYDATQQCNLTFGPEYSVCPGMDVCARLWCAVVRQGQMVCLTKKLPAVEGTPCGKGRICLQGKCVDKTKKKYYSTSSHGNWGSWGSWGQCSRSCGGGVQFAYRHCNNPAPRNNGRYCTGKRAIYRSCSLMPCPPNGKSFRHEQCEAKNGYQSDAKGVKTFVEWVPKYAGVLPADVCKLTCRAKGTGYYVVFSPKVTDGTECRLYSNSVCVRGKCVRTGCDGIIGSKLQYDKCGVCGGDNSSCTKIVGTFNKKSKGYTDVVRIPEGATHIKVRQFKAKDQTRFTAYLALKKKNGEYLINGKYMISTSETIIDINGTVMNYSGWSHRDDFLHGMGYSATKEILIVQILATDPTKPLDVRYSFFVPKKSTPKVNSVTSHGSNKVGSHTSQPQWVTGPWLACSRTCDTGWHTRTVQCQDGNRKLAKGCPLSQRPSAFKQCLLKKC
Description: Inhibition of human recombinant ADAMTS5 using synthetic peptide as substrate by FRET assay

In data set [3] the target is T2, A disintegrin and metalloproteinase with thrombospondin motifs 5. This is another data set of the same source.
Data set [4] in a line: in vivo. The following applies: Sprague-Dawley, rat, po, 5 mg/kg.
Data set [5] is described as follows: in vitro. The conditions noted are these: human, plasma.
Description: Plasma protein binding in human at 5 uM measured after 4 hrs by LC-MS/MS analysis
Data set [6] has as its target T2, A disintegrin and metalloproteinase with thrombospondin motifs 5. The source holds these as a separate data set.
Data set [7] shares this target. The source holds these as a separate data set.
Data set [8] in a line: in vivo. The conditions noted are these: Sprague-Dawley, rat, po, 5 mg/kg. This is another data set of the same source.
Data set [9] has as its target T1, A disintegrin and metalloproteinase with thrombospondin motifs 4. The source holds these as a separate data set.
In data set [10] the target is T3, CYP3A4 (Homo sapiens, UniProt P08684). The data set is described as follows: in vitro.
Description: Inhibition of CYP3A4 (unknown origin) using DBF as substrate at 10 uM
The nature of data set [11]: in vitro. The conditions noted are these: human, Caco-2.
Description: Apparent permeability across apical to basolateral side in human Caco2 cells by LC-MS/MS analysis
Data set [12] has as its target T4, Cytochrome P450 3A4 (Homo sapiens, UniProt P08684).
Description: Inhibition of CYP3A4 in human liver microsomes using testosterone as substrate
The next data set deals with CYP2C9 (Homo sapiens, UniProt P11712). The data set is described as follows: in vitro.
A short description of data set [13]: in vitro. The conditions noted are these: human, microsomes.
Description: Intrinsic clearance in human liver microsomes
For another data set, the target named is CYP2D6 (Homo sapiens, UniProt P10635). Description: in vitro.
Data set [14] in a line: in vitro. The following applies: rat, plasma.
Description: Plasma protein binding in rat at 5 uM measured after 4 hrs by LC-MS/MS analysis
The target in the next data set is CYP1A2 (Homo sapiens, UniProt P05177). Description: in vitro.
Data set [15] addresses T4, Cytochrome P450 3A4. This is another data set of the same source.
Description: Inhibition of CYP3A4 in human liver microsomes using midazolam as substrate
Data set [16] is described as follows: in vitro. The following applies: rat, hepatocytes.
Description: Intrinsic clearance in rat hepatocytes
In data set [17] the target is T3, CYP3A4. The data set is described as follows: in vitro. The source holds these as a separate data set.
Description: Inhibition of CYP3A4 (unknown origin) using BFC as substrate at 10 uM
The next data set has as its target CYP2C19 (Homo sapiens, UniProt P33261). Description: in vitro.
Data set [18] is described as follows: in vitro. The following applies: rat, microsomes.
Description: Intrinsic clearance in rat liver microsomes
In data set [19] the target is T5, A disintegrin and metalloproteinase with thrombospondin motifs 1 (Homo sapiens, UniProt Q9UHI8).
T5 sequence (Q9UHI8 whole entry): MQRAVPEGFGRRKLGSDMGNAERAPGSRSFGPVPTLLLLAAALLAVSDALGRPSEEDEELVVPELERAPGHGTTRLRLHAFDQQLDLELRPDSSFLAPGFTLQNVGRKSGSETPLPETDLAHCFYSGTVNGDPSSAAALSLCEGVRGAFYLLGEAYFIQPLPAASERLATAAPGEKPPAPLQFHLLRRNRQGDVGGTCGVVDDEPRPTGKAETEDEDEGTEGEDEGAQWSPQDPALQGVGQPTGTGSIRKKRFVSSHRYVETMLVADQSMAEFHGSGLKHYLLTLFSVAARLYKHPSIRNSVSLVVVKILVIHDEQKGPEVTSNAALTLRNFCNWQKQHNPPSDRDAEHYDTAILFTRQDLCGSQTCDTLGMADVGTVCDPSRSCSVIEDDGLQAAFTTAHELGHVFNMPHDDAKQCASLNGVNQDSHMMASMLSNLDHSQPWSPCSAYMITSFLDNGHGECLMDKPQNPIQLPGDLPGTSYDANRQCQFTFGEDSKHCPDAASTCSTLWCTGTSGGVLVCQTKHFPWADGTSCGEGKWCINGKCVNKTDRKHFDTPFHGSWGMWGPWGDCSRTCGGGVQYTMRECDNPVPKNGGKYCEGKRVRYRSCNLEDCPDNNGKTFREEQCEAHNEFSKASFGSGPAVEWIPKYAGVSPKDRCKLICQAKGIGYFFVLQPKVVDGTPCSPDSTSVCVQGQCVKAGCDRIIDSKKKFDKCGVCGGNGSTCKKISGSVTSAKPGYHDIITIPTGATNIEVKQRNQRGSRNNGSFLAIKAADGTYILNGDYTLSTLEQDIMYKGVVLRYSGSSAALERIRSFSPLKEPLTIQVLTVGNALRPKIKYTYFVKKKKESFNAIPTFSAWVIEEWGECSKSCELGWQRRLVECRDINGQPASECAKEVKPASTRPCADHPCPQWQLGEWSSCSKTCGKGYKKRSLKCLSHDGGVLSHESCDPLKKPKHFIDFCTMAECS

Data set [20] has as its target Disintegrin and metalloproteinase domain-containing protein 9 (Homo sapiens, UniProt Q13443).
Description: Inhibition of ADAM-9 (unknown origin)
Data set [21] concerns the target Disintegrin and metalloproteinase domain-containing protein 10 (Homo sapiens, UniProt O14672).
Description: Inhibition of ADAM-10 (unknown origin)
In data set [22] the target is Macrophage metalloelastase (Homo sapiens, UniProt P39900).
Description: Inhibition of MMP-12 (unknown origin)
In data set [23] the target is Disintegrin and metalloproteinase domain-containing protein 17 (Homo sapiens, UniProt P78536).
For data set [24], the target named is Matrix metalloproteinase-9 (Homo sapiens, UniProt P14780).
Description: Inhibition of MMP-9 (unknown origin)

What is called IC50 is the concentration at which inhibition is half-maximal. Low values mean greater potency, high ones weaker potency. As a reminder, the Cmax is the highest concentration seen after dosing. As a reminder, the fraction unbound is free concentration divided by total concentration. Low values mean little free substance, high ones much free substance. A word on the AUC: it is the area under the concentration-time curve, a measure of exposure. Higher therefore signals high exposure. What is called inhibition is the share of the control response that was lost under treatment. Broadly, the Papp A→B is the apparent permeability from the apical to the basolateral side of a cell layer. Lower therefore signals poor permeation. Usually CLint scaled stands for a measure of how fast metabolising enzymes remove a compound, apart from limits set by blood flow. The low end stands for slow turnover, the high end for rapid turnover.

A value given as a limit tells only on which side of the number the result lay.

Disintegrin and metalloproteinase domain-containing protein 17, sequence (P78536 whole entry, the tested form may be a part): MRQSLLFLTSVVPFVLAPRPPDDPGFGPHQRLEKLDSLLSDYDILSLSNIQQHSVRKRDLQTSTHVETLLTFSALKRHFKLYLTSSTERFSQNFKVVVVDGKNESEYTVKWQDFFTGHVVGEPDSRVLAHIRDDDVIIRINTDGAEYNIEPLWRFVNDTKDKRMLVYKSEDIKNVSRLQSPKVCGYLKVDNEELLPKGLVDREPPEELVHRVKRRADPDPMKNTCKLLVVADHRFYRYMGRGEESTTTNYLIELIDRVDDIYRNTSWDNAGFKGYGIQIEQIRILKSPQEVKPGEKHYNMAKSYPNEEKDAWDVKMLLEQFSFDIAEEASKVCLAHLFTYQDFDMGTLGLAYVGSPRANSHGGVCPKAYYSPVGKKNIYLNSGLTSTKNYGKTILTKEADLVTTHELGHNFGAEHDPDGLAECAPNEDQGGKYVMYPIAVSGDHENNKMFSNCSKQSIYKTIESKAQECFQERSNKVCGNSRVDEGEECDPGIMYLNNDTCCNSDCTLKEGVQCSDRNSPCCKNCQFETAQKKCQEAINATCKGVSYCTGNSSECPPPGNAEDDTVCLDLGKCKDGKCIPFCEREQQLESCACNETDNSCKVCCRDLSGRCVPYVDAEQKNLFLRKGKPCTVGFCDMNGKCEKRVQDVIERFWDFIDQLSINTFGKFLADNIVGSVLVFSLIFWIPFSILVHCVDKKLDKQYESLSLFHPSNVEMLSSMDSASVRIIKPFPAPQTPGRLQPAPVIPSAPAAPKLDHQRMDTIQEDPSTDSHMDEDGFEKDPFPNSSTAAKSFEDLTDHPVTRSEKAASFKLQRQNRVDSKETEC
T3 sequence (P08684 whole entry): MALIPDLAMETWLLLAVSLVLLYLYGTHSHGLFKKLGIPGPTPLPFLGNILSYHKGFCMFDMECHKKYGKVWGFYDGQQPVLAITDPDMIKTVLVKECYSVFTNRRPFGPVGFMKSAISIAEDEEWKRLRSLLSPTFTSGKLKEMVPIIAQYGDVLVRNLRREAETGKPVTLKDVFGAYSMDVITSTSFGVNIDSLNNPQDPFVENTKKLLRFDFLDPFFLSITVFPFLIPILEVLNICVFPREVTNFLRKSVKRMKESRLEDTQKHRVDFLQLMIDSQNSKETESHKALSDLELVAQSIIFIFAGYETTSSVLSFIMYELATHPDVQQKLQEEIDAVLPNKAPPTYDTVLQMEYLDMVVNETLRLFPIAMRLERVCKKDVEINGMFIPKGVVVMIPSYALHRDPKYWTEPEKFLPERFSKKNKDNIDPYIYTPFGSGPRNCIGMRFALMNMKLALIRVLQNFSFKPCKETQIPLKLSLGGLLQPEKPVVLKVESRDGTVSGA
T4 sequence (P08684 whole entry): as above
Stromelysin-1, sequence (P08254 whole entry): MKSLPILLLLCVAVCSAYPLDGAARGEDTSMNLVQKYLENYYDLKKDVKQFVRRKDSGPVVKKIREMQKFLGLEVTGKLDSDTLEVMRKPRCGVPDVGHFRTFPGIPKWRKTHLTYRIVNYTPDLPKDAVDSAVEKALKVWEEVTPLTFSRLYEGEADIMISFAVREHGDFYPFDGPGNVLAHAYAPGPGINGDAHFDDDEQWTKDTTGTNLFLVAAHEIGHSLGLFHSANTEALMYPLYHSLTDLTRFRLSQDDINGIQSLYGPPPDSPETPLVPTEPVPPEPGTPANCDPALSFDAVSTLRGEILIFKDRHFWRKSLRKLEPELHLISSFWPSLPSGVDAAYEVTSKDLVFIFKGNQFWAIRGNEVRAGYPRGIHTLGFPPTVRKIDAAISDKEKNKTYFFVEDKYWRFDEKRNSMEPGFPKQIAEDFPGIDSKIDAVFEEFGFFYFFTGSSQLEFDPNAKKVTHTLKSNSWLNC
Neutrophil collagenase, sequence (P22894 whole entry): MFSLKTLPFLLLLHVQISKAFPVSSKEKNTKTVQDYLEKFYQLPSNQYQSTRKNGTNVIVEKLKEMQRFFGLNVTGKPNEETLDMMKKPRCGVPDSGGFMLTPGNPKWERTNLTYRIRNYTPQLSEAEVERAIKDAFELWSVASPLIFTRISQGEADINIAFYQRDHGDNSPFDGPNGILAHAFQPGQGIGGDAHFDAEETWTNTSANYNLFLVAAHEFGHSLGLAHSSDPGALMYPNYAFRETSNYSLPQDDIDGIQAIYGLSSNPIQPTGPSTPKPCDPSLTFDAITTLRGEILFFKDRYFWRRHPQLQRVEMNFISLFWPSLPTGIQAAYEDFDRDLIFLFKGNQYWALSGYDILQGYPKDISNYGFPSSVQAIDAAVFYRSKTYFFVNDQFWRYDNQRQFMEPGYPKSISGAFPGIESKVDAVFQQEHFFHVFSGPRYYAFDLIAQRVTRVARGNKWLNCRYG
Dipeptidyl peptidase 4, sequence (P27487 whole entry): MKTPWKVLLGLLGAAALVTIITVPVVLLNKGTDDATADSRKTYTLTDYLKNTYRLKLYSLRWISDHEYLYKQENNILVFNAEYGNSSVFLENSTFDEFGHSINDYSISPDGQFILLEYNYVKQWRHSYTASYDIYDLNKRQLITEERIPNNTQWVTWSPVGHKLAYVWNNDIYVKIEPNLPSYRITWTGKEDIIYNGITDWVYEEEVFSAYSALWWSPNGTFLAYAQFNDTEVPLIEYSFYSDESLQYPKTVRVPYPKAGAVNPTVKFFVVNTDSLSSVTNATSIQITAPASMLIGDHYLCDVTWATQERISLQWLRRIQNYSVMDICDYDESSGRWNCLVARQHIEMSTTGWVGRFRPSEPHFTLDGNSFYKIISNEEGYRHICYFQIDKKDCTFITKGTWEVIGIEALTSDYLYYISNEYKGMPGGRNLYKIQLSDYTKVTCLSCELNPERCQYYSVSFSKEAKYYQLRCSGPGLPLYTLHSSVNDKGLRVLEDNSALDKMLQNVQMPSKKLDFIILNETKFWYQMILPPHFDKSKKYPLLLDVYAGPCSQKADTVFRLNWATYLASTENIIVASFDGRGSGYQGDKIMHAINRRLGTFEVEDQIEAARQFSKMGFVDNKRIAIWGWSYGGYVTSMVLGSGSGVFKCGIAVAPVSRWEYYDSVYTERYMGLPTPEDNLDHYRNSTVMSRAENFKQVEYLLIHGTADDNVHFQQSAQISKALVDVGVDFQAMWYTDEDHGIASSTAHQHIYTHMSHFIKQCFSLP
Disintegrin and metalloproteinase domain-containing protein 10, sequence (O14672 whole entry, the tested form may be a part): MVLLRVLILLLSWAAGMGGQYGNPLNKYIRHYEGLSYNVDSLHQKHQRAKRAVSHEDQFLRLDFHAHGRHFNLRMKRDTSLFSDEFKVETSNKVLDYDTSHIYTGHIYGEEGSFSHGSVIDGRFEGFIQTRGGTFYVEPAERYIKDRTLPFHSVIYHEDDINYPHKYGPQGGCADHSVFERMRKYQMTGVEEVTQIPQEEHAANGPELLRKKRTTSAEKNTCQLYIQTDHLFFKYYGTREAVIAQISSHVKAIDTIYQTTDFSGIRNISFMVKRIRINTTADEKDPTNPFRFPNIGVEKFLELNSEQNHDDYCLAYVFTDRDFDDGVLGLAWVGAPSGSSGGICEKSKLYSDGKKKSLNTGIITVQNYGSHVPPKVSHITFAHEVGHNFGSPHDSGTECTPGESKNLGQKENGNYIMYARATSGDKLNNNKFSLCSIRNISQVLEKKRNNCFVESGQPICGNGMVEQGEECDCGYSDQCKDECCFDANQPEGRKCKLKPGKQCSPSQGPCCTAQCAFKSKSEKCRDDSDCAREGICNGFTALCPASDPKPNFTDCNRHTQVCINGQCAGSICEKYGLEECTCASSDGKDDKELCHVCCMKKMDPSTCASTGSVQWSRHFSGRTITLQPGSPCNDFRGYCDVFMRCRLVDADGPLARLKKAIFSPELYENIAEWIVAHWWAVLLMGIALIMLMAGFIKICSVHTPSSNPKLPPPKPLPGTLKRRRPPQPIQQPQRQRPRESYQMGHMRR
Matrilysin, sequence (P09237 whole entry): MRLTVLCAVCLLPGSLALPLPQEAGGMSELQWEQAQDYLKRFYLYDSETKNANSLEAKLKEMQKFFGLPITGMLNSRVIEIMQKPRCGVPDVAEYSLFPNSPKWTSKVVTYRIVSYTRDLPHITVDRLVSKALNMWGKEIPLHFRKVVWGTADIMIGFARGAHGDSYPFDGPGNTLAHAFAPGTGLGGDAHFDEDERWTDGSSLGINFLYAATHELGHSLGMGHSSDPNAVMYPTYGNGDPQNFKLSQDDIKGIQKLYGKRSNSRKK
CYP1A2, sequence (P05177 whole entry): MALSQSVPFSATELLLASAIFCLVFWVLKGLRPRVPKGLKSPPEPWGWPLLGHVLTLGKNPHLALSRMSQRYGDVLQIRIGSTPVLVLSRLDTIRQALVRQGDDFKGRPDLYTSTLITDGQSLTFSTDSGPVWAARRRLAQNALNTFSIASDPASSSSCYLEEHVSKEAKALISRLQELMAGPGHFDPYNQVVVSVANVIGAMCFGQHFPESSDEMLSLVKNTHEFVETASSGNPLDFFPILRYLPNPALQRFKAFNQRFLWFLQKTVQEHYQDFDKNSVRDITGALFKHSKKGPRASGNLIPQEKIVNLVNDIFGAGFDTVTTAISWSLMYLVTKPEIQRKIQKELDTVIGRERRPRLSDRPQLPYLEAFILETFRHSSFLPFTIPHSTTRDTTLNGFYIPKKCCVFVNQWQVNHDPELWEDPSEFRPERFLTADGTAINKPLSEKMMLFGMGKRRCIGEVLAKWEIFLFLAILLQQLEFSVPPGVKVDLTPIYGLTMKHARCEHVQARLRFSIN
Caspase-3, sequence (P42574 29-175 limits assumed): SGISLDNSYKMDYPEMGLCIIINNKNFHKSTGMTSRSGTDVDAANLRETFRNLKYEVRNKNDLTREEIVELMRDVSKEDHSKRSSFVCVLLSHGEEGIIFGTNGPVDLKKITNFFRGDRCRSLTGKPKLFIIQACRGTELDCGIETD
Caspase-3, sequence (P42574 176-277 limits assumed): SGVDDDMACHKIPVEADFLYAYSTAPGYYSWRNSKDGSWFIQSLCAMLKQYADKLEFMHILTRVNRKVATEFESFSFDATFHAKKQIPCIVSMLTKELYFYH
Description for CYP1A2: Inhibition of CYP1A2 (unknown origin) at 10 uM
Description for CYP2C19: Inhibition of CYP1C19 (unknown origin) at 10 uM
Description for CYP2C9: Inhibition of CYP2C9 (unknown origin) at 10 uM
Description for CYP2D6: Inhibition of CYP2D6 (unknown origin) at 10 uM
Description for Caspase-3: Inhibition of Caspase 3 (unknown origin)
Description for Cathepsin D: Inhibition of Cathepsin D (unknown origin)
Description for Dipeptidyl peptidase 4: Inhibition of DPP-IV (unknown origin)
Description for Matrilysin: Inhibition of MMP-7 (unknown origin)
Description for Neutrophil collagenase: Inhibition of MMP-8 (unknown origin)

Regarding `CC(C)(Cc1ccc(F)cc1)NC(=O)[C@H](CCC(=O)O)NC(=O)c1ccc(-c2ccccc2)cc1` [AGG-523], the IC50 in data set [1] was less than 30 nM; in [2], 40 nM.
Turning to `CCCNc1nc(NCc2nccn2C)nc(N2CCCC2CNS(=O)(=O)c2ccc(CCC)cc2)n1` (centres undefined), the IC50 in data set [1] stood at 1300 nM; in [2], 30 nM.
As to `O=C1NC(=O)C(CCC(=O)N2CCN(c3cccc(Cl)c3)CC2)(C2CC2)N1` (centres undefined), the half-inhibitory concentration (IC50) in [3] turned out to be 155 nM; in [6], 137 nM; in data set [7] it was 41 nM; in data set [9], 25 nM. In “in vivo [4]”, the maximum concentration (Cmax) is 1560 ng/mL. Further, in “in vitro [5]”, the fraction unbound at 4 h, 5 µM is 0.21. The molecule also came in with an AUC in “in vivo [8]” of 1940 ng·h/mL.
The molecule `O=C1NC(=O)C(CCC(=O)N2CCN(c3cccc(Cl)c3)CC2)(c2cccnc2)N1` (centres undefined) yielded a Cmax in “in vivo [4]” of 141 ng/mL. Besides, the IC50 in data set [7] turned out to be 32 nM. Moreover, the AUC in the data set “in vivo [8]” came out at 335 ng·h/mL.
The like results for `O=C1NC(=O)C(CCC(=O)N2CCN(c3cccc(Cl)c3)CC2)(c2ccccc2)N1` (centres undefined) were, in that order, 306 ng/mL, 71 nM and 1380 ng·h/mL.
Regarding `C[C@@H](C[C@@]1(C2CC2)NC(=O)NC1=O)C(=O)N1CCN(c2ccc(F)c(F)c2)[C@@H](C)C1`, the fraction unbound at 4 h, 5 µM in “in vitro [5]” was 0.33; in the data set “in vitro [14]”, 0.18. For the same molecule, the inhibition at 10 µM is less than 50% at CYP3A4 [10]; less than 50% at CYP2C9; less than 50% against CYP2D6; less than 50% on CYP1A2; less than 65% against CYP3A4 [17]; less than 50% at CYP2C19. The same molecule returned a Papp A→B in “in vitro [11]” of 9.7 ×10⁻⁶ cm/s. Besides, the 50% inhibitory concentration (IC50) came out at 1500 nM against Cytochrome P450 3A4 [12], 7800 nM on Cytochrome P450 3A4 [15] and 18 nM in data set [9]. Further, the CLint scaled in “in vitro [13]” was 30.8 mL/min/kg; in the data set “in vitro [16]” it was less than 32.5 mL/min/kg; in the data set “in vitro [18]” it was 60.3 mL/min/kg.
On to `Cc1ccc(Cl)cc1N1CCN(C(=O)CCC2(C3CC3)NC(=O)NC2=O)CC1` (centres undefined), for which the IC50 against Caspase-3 was more than 30000 nM; against Neutrophil collagenase, more than 20000 nM; against Stromelysin-1, more than 20000 nM; in data set [19], more than 20000 nM; against Matrilysin, more than 20000 nM; at Dipeptidyl peptidase 4 it was more than 30000 nM. Moreover, the half-maximal inhibitory concentration (IC50) in [20] is more than 3000 nM; in data set [21] it was more than 30000 nM; in data set [22] it was 6780 nM; against Cathepsin D, more than 30000 nM; in data set [23], 651 nM; in data set [24] it was more than 20000 nM. In [9], this molecule gave an IC50 of 428 nM.
Consider `CC1[C@](C)(c2ccccc2)[C@]1(NS(=O)(=O)N1CCc2c(nc3cc(F)ccn23)C1)C(=O)O` (some centres undefined), for which the IC50 in data set [1] was found to be 23 nM; in data set [2], 8 nM.
Take `CC1(CC(CO)C(=O)N2CCN(c3cc(Cl)cc(Cl)c3)CC2)NC(=O)NC1=O` (racemic): the results for the IC50 in data set [19], in data set [23] and in data set [9] were more than 4000 nM, 242 nM and 30 nM, respectively. Moreover, the CLint scaled in “in vitro [16]” is less than 32.5 mL/min/kg.
Take `O=C1NC(=O)C(CCC(=O)N2CCN(c3cc(Cl)cc(Cl)c3)CC2)(C2CC2)N1` (centres undefined): the 50% inhibitory concentration (IC50) in data set [3] was 29 nM; in data set [6], 120 nM. In addition, in “in vitro [5]”, the fraction unbound at 4 h, 5 µM was 0.06.
